Test results from patent publication US5496703A, “Indirect immunoassay for dioxinlike compounds” (priority 1993, dated 1996).
Values joined by “and” are separate entries in the source; they are usually repeats but may differ in a detail not shown here. Equal values may be shown once.

Key:
protein kinase C = conditions: cited from earlier work
C57BL/6J mouse strain = conditions: cited from earlier work
cytochrome P-450IA1 [1] = test: Ethoxyresorufin O-deethylase assay (EROD), X3 cells; assay type: cell-based, human; conditions: 16 hours
Protocol: The X3 human lymphoblastoma cells (Genetest, Wolburn, Mass.) were grown in 75 cm^2 T-flasks in RPMI 1640 medium (Gibco) containing 9% horse serum. Any cell or cell line expressing cytochrome P-450IA1 may be used. The cells were cultured at 37° C. in a 5% CO2 (balance air) environment. Cells were subcultured by centrifuging (1000 rpm, 3 minutes) and resuspended in fresh media to a volume of 50 mL (at a cell density of 1.0×10^6 cells/mL). The TCDD-corn oil solution was homogenized with serum to a final concentration of 0.10 μg/mL. The TCDD-serum was added at concentrations of 0, 0.02, 0.05, 0.1, 0.5 and 1.0 nM per flask and incubated for 16 hours. […] A final cell count was then determined.
(§1) Resorufin (hydroxyphenoxazone) and ethoxyresorufin were purchased from Molecular Probes (Junction City, Oreg.). EROD was measured by following the increase in fluorescence due to the formation of resorufin by dealkylation of its ethoxy derivative. […] A baseline of fluorescence was recorded at an excitation wavelength of 530 nm and an emission wavelength of 585 nm. The reaction was started with the addition of NADPH and the dealkylation of the derivative to resorufin was followed by a progressive increase in fluorescence as resorufin was generated. Recordings were standardized by measuring the fluorescence of freshly generated resorufin from resorufin acetate (Sigma, St. Louis, Mo.) prior to each assay. […]

cytochrome P-450IA1 [2] = test: Ethoxyresorufin O-deethylase assay (EROD), hepatic S-9, mice dosed i.p.; assay type: in vivo, C57BL/6 mice; conditions: hepatic S-9, i.p., 24 hours after dosing
Protocol: Female, C57BL/6 mice (or any cytochrome P-450IA1 inducible strain) were obtained from Harton Sprague Dawley (Indianapolis, Ind.). Experiments were performed using four to six week old, female mice weighing approximately 16 to 20 g. Mice were fed Prolab RMH 1000 rat, mouse and hamster food (Agway, Cortland, N.Y.) and received tap water ad libitum. All mice were housed three to five per cage and maintained on a photoperiod of 12 hours. Mice were killed 24 hours following an intraperitoneal injection of either corn oil alone or TCDD (Analabs) at 0.25, 0.5, 1, 2, 4, 10, 50 μg/kg, the volume of the injections ranged from 0.1 to 0.2 ml per mouse. […]
as §1, with “ethoxyresorufin was” for “ethoxyresorufin were”

[3] = cited from earlier work
phospholipase C = conditions: certain cell lines; cited from earlier work
Ah receptor = conditions: cited from earlier work
hepatic Ah receptor = conditions: room temperature, ligand concentration 10^-9 M; cited from earlier work
[4] = single human; cited from earlier work
rodents = conditions: guinea pig to hamster; cited from earlier work

SMILES: Clc1cc2c(cc1Cl)Oc1cc(Cl)c(Cl)cc1O2 [TCDD, 2,3,7,8-tetrachlorodibenzo-p-dioxin]
- protein kinase C activity (protein kinase C): increases the activity of protein kinase C
- susceptibility to TCDD-induced toxicity (C57BL/6J mouse strain): very susceptible
- concentration of maximal EROD activity (cytochrome P-450IA1 [1]): 2 nM and 1 nM
- EC50 (cytochrome P-450IA1 [1]; probit model): 0.3 nM
- ED50, cytochrome P-450IA1 expression (EROD) (cytochrome P-450IA1 [2]): 5 μg TCDD/kg
- dose of maximal EROD activity (cytochrome P-450IA1 [2]): 50 μg TCDD/kg
- difference in whole body half-life between guinea pig and hamster ([3]; guinea pig versus hamster): 3 fold
- whole-body half-life ([3]; rodents): on the order of weeks
- phospholipase C activation (phospholipase C): activates protein kinase C in certain cell lines but also phospholipase C
- hepatic level of TCDD binding Ah receptor (Ah receptor; DBA/2 mouse): less than 1 fmol of receptor/mg of cytosolic protein
- binding to DBA/2 mouse receptor (Ah receptor): Weaker binding
- saturation half-life of binding (hepatic Ah receptor): less than 1 hour
- half-life [4]: 5.8 year
- range of LD50 among rodents (rodents): ≥ 2500 fold
